From US10988459B2 (priority 2015, dated 2021)
Where “and” joins values, the source holds several entries; their conditions need not be identical. Equal values may be shown once.

Each compound was assayed against human RIP1 kinase domain (2-375) (Homo sapiens (Human), UniProt Q13546) (assay: biochemical). Conditions: Table 1; apparent Ki (Morrison tight-binding fit); 50 nM RIP1 kinase domain, 50 uM ATP, 2 hours incubation; read-out: RIP1 Ki.
Assay type: biochemical
Procedure, shortened: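 50 nM purified kinase domain from baculovirus-infected insect cells, incubated 2 h with compound in 50 mM Hepes pH 7.5, 30 mM MgCl2, 1 mM DTT, 50 uM ATP, 0.002% Brij-35, 0.5% DMSO. ADP formation read by Transcreener FP at 633 nm excitation. Ki^app fitted with the Morrison tight-binding equation.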

Sequence of human RIP1 kinase domain (2-375) (Q13546 2-375): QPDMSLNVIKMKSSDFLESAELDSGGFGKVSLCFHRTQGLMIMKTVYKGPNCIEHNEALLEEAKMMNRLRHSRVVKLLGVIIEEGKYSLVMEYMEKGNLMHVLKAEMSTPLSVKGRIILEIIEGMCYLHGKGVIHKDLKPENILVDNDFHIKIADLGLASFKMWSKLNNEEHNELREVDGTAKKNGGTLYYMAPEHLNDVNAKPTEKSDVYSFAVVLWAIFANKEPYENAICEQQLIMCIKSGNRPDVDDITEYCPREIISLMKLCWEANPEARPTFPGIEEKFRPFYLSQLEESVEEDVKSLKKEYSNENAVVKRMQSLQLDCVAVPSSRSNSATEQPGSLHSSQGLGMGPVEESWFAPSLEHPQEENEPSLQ

For `CN1C(=O)[C@@H](NC(=O)c2ncc3n2CC(C(F)(F)F)CC3)COc2ccccc21` (stereo partly drawn) [Example 36, N—((S)-5-methyl-4-oxo-2,3,4,5-tetrahydrobenzo[b][1,4]oxazepin-3-yl)-6-(trifluoromethyl)-5,6,7,8-tetrahydroimidazo[1,5-a]pyridine-3-carboxamide], the Ki was 185 nM.

Same assay, conditions: Table 5; apparent Ki (Morrison tight-binding fit); 50 nM RIP1 kinase domain, 50 uM ATP, 2 hours incubation; read-out: Ki

Going from `COC1CN(Cc2cc3n(n2)CCC(NC(=O)c2ncn(Cc4ccccc4)n2)C(=O)N3C)C1` (single isomer, unassigned) [Example 722, 1-benzyl-N-[2-[(3-methoxyazetidin-1-yl)methyl]-4-methyl-5-oxo-7,8-dihydro-6H-pyrazolo[1,5-a][1,3]diazepin-6-yl]-1,2,4-triazole-3-carboxamide] to `CN1C(=O)[C@@H](NC(=O)c2ncn(Cc3ccccc3)n2)CCn2nc(CO)cc21` (single isomer, unassigned) [Example 788], the Ki falls from 444 nM to 61 nM (7.3-fold). The second binds more tightly here.

In the case of `CN1C(=O)[C@H](NC(=O)c2ncn(Cc3ccccc3)n2)CCn2nc(CCCN3CCOCC3)cc21` (single isomer, unassigned) [Example 738], the Ki is reported as 4020 nM.

Same assay, conditions: human RIP1 kinase domain (2-375), 50 uM ATP, 2 hours incubation, Transcreener ADP assay; read-out: RIP1 Ki

Going from `CN1C(=O)[C@@H](NC(=O)c2cc3c(cn2)CO[C@]3(C)CC(F)(F)F)COc2ccccc21` [Example 161, (R)-1-methyl-N-((S)-5-methyl-4-oxo-2,3,4,5-tetrahydrobenzo[b][1,4]oxazepin-3-yl)-1-(2,2,2-trifluoroethyl)-1,3-dihydrofuro[3,4-c]pyridine-6-carboxamide] to `CN1C(=O)[C@@H](NC(=O)c2n[nH]c3c2CC(CC(F)(F)F)OC3)COc2ccccc21` (stereo partly drawn) [Example 210, N—((S)-5-methyl-4-oxo-2,3,4,5-tetrahydrobenzo[b][1,4]oxazepin-3-yl)-5-(2,2,2-trifluoroethyl)-1,4,5,7-tetrahydropyrano[3,4-c]pyrazole-3-carboxamide], the Ki rises from 8.9 nM to 193 nM (22-fold).

`CN1C(=O)C(NC(=O)c2nnc(Cc3cccc(F)c3F)[nH]2)CCCn2nccc21` (stereo not drawn) [Example 97, 5-(2,3-difluorobenzyl)-N-(4-methyl-5-oxo-4,5,6,7,8,9-hexahydropyrazolo[1,5-a][1,3]diazocin-6-yl)-4H-1,2,4-triazole-3-carboxamide] and `CC(C)n1ncc2c1OC[C@H](NC(=O)c1nnc(Cc3ccccc3)[nH]1)C(=O)N2C` [Example 179, (S)-5-benzyl-N-(1-isopropyl-4-methyl-5-oxo-4,5,6,7-tetrahydro-1H-pyrazolo[3,4-b][1,4]oxazepin-6-yl)-4H-1,2,4-triazole-3-carboxamide] are within 1.5-fold of each other in Ki: 215 nM for the first, 254 nM for the second.

`CN1C(=O)[C@@H](NC(=O)c2n[nH]c3c2CC(c2ccc(F)cc2F)OC3)COc2ccccc21` (stereo partly drawn) [Example 207, 5-(2,4-difluorophenyl)-N—((S)-5-methyl-4-oxo-2,3,4,5-tetrahydrobenzo[b][1,4]oxazepin-3-yl)-1,4,5,7-tetrahydropyrano[3,4-c]pyrazole-3-carboxamide] and `CN1C(=O)C(NC(=O)c2ncn(Cc3ccccc3)n2)CCn2nc(C(F)(F)F)cc21` (stereo not drawn) [Example 85, 1-benzyl-N-(4-methyl-5-oxo-2-(trifluoromethyl)-5,6,7,8-tetrahydro-4H-pyrazolo[1,5-a][1,3]diazepin-6-yl)-1H-1,2,4-triazole-3-carboxamide] are within 1.5-fold of each other in Ki: 61.7 nM for the first, 76.8 nM for the second.

Same assay, conditions: human RIP1 kinase domain (2-375), Transcreener ADP assay, 50 uM ATP, 2 hours incubation; read-out: RIP1 Ki

Going from `Cc1cc2n(n1)CCC(NC(=O)c1ncn(CC3CCCC3)n1)C(=O)N2C` (stereo not drawn) [Example 251, 1-(cyclopentylmethyl)-N-(2,4-dimethyl-5-oxo-5,6,7,8-tetrahydro-4H-pyrazolo[1,5-a][1,3]diazepin-6-yl)-1H-1,2,4-triazole-3-carboxamide] to `CN1C(=O)C(NC(=O)c2ncn(Cc3ccc(Cl)cc3)n2)CCn2nc(C3CC3)cc21` (stereo not drawn) [Example 288, 1-(4-chlorobenzyl)-N-(2-cyclopropyl-4-methyl-5-oxo-5,6,7,8-tetrahydro-4H-pyrazolo[1,5-a][1,3]diazepin-6-yl)-1H-1,2,4-triazole-3-carboxamide], the Ki falls from 136 nM to 62.3 nM (2.2-fold).

Compared with `CC[C@]1(C)OCc2cnc(C(=O)N[C@H]3COc4cc(F)cc(F)c4NC3=O)cc21` [Example 243, (S)—N—((S)-6,8-difluoro-4-oxo-2,3,4,5-tetrahydrobenzo[b][1,4]oxazepin-3-yl)-1-ethyl-1-m ethyl-1,3-dihydrofuro[3,4-c]pyridine-6-carboxamide], `CC[C@@]1(C)OCc2cnc(C(=O)NC3CCn4cnc(C)c4N(C)C3=O)cc21` (stereo partly drawn) [Example 263, (1R)—N-(1,9-dimethyl-2-oxo-2,3,4,5-tetrahydro-1H-imidazo[1,5-a][1,3]diazepin-3-yl)-1-ethyl-1-methyl-1,3-dihydrofuro[3,4-c]pyridine-6-carboxamide] is 3.2-fold higher in Ki: 270 nM for the first, 854 nM for the second.

For `Cc1cc2n(n1)CC[C@H](NC(=O)c1ncn(C(C)c3ccc(F)cc3)n1)C(=O)N2C` (stereo partly drawn) [Example 270, N—((S)-2,4-dimethyl-5-oxo-5,6,7,8-tetrahydro-4H-pyrazolo[1,5-a][1,3]diazepin-6-yl)-1-(1-(4-fluorophenyl)ethyl)-1H-1,2,4-triazole-3-carboxamide], the Ki was 88.5 nM.

Same assay, conditions: tight-binding apparent inhibition constant; human RIP1 kinase domain (2-375) 50 nM, 50 uM ATP, 2 hours; read-out: Ki

Going from `CN1C(=O)[C@@H](NC(=O)c2nc3n(n2)C(c2c(F)cccc2F)CCC3)CCn2nccc21` (stereo partly drawn) [Example 396, 5-(2,6-difluorophenyl)-N—((S)-4-methyl-5-oxo-5,6,7,8-tetrahydro-4H-pyrazolo[1,5-a][1,3]diazepin-6-yl)-5,6,7,8-tetrahydro-[1,2,4]triazolo[1,5-a]pyridine-2-carboxamide] to `CN1C(=O)[C@@H](NC(=O)c2ncn(Cc3ccc(F)cc3F)n2)CCn2nccc21` (racemic) [Example 340, 1-[(2,4-difluorophenyl)methyl]-N-[rac-(6S)-4-methyl-5-oxo-7,8-dihydro-6H-pyrazolo[1,5-a][1,3]diazepin-6-yl]-1,2,4-triazole-3-carboxamide], the Ki falls from 152 nM to 12.8 nM (12-fold).

Going from `CN1C(=O)[C@@H](NC(=O)c2nc3n(n2)[C@@H](C2CCOCC2)CCC3)COc2ccccc21` (racemic) [Example 409, (R)—N—((S)-5-methyl-4-oxo-2,3,4,5-tetrahydrobenzo[b][1,4]oxazepin-3-yl)-5-(tetrahydro-2H-pyran-4-yl)-5,6,7,8-tetrahydro-[1,2,4]triazolo[1,5-a]pyridine-2-carboxamide] to `CCC[C@H]1CCCc2nc(C(=O)N[C@H]3COc4ccccc4N(C)C3=O)nn21` (racemic) [Example 415, (S)—N—((S)-5-methyl-4-oxo-2,3,4,5-tetrahydrobenzo[b][1,4]oxazepin-3-yl)-5-propyl-5,6,7,8-tetrahydro-[1,2,4]triazolo[1,5-a]pyridine-2-carboxamide], the Ki falls from 565 nM to 12.6 nM (45-fold).

First: Cc1cc2n(n1)CC[C@H](NC(=O)c1ncc3c(n1)[C@](C)(CC(F)(F)F)OC3)C(=O)N2C (racemic) [Example 689, rac-(75)-7-methyl-N-[rac-(6S)-2,4-dimethyl-5-oxo-7,8-dihydro-6H-pyrazolo[1,5-a][1,3diazepin-6-yl]-7-(2,2,2-trifluoroethyl)-5H-furo[3,4-d]pyrimidine-2-carboxamide]
Second: Cc1cc2n(n1)CC[C@H](NC(=O)c1ncn(CC3CCC(F)(F)C3)n1)C(=O)N2C (stereo partly drawn) [Example 569, 1-[(3,3-difluorocyclopentyl)methyl]-N-(6S)-2,4-dimethyl-5-oxo-7,8-dihydro-6H-pyrazolo[1,5-a][1,3]diazepin-6-yl-1,2,4-triazole-3-carboxamide]
The Ki of the first is 3.3-fold lower: 176 nM for the first, 580 nM for the second. The first binds more tightly here.

Going from `CC(C)[C@H]1CCCc2nc(C(=O)N[C@H]3COc4cc(F)cc(F)c4NC3=O)nn21` (single isomer, unassigned) [Example 447] to `Cc1cc(F)c2c(c1)OC[C@H](NC(=O)c1nc3n(n1)[C@@H](C(C)C)CC3)C(=O)N2` (single isomer, unassigned) [Example 354], the Ki falls from 207 nM to 4.5 nM (46-fold).

Compared with `Cc1cc2n(n1)CC[C@H](NC(=O)c1ncn(C[C@H]3C[C@H](C)C3)n1)C(=O)N2C` [Example 498, N—((S)-2,4-dimethyl-5-oxo-5,6,7,8-tetrahydro-4H-pyrazolo[1,5-a][1,3]diazepin-6-yl)-1-(((1S,3R)-3-methylcyclobutyl)methyl)-1H-1,2,4-triazole-3-carboxamide], `COc1ccccc1Cn1cnc(C(=O)N[C@H]2CCn3nc(C4CC4)cc3N(C)C2=O)n1` [Example 592] is 8.3-fold lower in Ki: 400 nM for the first, 48 nM for the second.

First: CCC[C@@H]1CCCc2nc(C(=O)N[C@H]3COc4cc(F)cc(F)c4NC3=O)nn21 (single isomer, unassigned) [Example 445]
Second: CCC[C@]1(C)OCc2cnc(C(=O)N[C@H]3COc4cc(F)cc(F)c4NC3=O)nc21 [Example 619, (7S)-7-methyl-7-propyl-N-[(3S)-6,8-difluoro-4-oxo-3,5-dihydro-2H-1,5-benzoxazepin-3-yl]-5H-furo[3,4-d]pyrimidine-2-carboxamide]
The Ki of the first is 52-fold lower: 3.47 nM for the first, 180 nM for the second. The first binds more tightly here.

Compared with `CC(C)c1cccc2nc(C(=O)N[C@H]3COc4cc(F)cc(F)c4NC3=O)nn12` [Example 424, (S)—N-(6,8-difluoro-4-oxo-2,3,4,5-tetrahydrobenzo[b][1,4]oxazepin-3-yl)-5-isopropyl-[1,2,4]triazolo[1,5-a]pyridine-2-carboxamide], `CN1C(=O)[C@@H](NC(=O)c2ncn(Cc3ccc(F)cc3)n2)CCn2nccc21` (racemic) [Example 339, 1-[(4-fluorophenyl)methyl]-N-[rac-(6S)-4-methyl-5-oxo-7,8-dihydro-6H-pyrazolo[1,5-a][1,3]diazepin-6-yl]-1,2,4-triazole-3-carboxamide] is 9.4-fold higher in Ki: 3 nM for the first, 28.2 nM for the second. The first binds more tightly here.

`CN1C(=O)[C@@H](NC(=O)c2ncn(Cc3ccccc3Cl)n2)CCn2nccc21` [Example 582, 1-[(2-chlorophenyl)methyl]-N-(6S)-4-methyl-5-oxo-7,8-dihydro-6H-pyrazolo[1,5-a][1,3]diazepin-6-yl-1,2,4-triazole-3-carboxamide] was tested, and the Ki was 7.6 nM and 43 nM.
